Source: patent US20250011318A1 (ARCUS BIOSCIENCES, INC., priority 2023, published 2025)

How the values were obtained:
[1] = target: T1, Cbl-b (Homo sapiens, UniProt Q13191); test: Cbl-b probe displacement HTRF binding assay; conditions: 0.4 nM biotinylated Cbl-b, 150 nM BODIPY probe
T1 construct: biotin (biotinylated)
Procedure, shortened: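 Probe-displacement HTRF in Hepes/NaCl/Triton/TCEP/BSA buffer at room temperature: compound dilutions (to 10 μM) incubated 60 min with 0.4 nM biotin-Cbl-b, 150 nM BODIPY probe added for 15 min, Tb-streptavidin read. Signal normalised to DMSO and no-protein controls; IC50 from four-parameter curve.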

[2] = test system: Jurkat cells; test: IL-2 secretion assay in CD3/CD28-activated Jurkat cells (AlphaLISA); type: cell-based, human; conditions: Homo sapiens, CD3/CD28 T Cell Activator, 24 h, IL-2 AlphaLISA
Procedure, shortened: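 IL-2 release quantified by AlphaLISA in supernatants after 24 h CD3/CD28 activation at 37° C. Compounds, 10 μM to 300 pM final in 1:2 steps, were added to 50,000 Jurkat cells/well 1 h before activation; 4-parameter fit gave EC50.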

T1 sequence (Q13191 whole entry, species assumed): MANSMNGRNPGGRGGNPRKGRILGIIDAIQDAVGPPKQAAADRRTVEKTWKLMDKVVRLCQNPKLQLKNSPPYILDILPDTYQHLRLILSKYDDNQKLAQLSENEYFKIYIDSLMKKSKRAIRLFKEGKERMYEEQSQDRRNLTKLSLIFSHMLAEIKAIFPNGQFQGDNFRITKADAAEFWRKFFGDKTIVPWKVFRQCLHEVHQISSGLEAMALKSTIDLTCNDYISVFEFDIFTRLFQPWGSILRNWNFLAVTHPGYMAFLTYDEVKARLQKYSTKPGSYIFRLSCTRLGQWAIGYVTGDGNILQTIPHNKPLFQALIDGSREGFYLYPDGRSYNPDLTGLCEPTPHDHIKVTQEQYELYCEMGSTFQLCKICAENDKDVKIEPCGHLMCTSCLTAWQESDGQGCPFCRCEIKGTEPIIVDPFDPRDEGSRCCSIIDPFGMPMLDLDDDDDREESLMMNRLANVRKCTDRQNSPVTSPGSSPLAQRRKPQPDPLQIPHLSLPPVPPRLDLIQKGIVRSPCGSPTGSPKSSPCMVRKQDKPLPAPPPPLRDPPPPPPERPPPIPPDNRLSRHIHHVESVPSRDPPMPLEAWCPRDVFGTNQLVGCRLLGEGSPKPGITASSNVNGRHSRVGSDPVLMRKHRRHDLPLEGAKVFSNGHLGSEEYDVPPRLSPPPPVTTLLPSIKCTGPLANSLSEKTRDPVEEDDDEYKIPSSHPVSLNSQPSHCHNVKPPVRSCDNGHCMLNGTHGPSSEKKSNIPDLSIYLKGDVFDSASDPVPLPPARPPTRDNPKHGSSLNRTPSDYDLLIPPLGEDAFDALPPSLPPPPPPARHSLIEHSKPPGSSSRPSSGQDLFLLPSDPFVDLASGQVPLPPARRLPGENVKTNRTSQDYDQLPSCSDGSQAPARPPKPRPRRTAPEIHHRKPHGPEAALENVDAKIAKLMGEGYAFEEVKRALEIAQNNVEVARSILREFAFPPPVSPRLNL

IC50 [1] [nM]	EC50 [2] [nM]	Compound
< 100	< 100	C[C@H]1CN(Cc2cc3c(C#N)cn(-c4cc(-c5c(F)cc(F)cc5-c5nccn5C)cc(C5CC5)n4)c(=O)c3[nH]2)CCCO1 [Example 88, 2-{1[(S)-2-methyl-1,4-oxazepan-4-yl]methyl}-6-{6-cyclopropyl-4-[4,6-difluoro-2-(1-methyl-2-imidazolyl)phenyl]-2-pyridyl}-7-oxo-1,6-dihydro-1,6-diaza-4-indenecarbonitrile]
< 100	< 100	C[C@@H]1CN(Cc2cc3c(C4CC4)cn(-c4cc(-c5ccc(F)cc5-c5nccn5C)cc(C5CC5)n4)c(=O)c3[nH]2)CCO1 [Example 54, 2-{[(R)-2-methyl-4-morpholinyl]methyl}-4-cyclopropyl-6-{6-cyclopropyl-4-[4-fluoro-2-(1-methyl-2-imidazolyl)phenyl]-2-pyridyl}-1,6-dihydro-1,6-diaza-7-indenone]
